Test [1] relates to differentiated 3T3-L1 mouse adipocyte cells. The test is described as follows: Adipocyte glucose consumption in differentiated 3T3-L1 mouse adipocyte cells (loss of glucose from medium, colorimetric). It counts as cell-based. Particulars: compound 10 μM, 22 to 24 hours, differentiated 3T3-L1 adipocytes, compound/DMSO, read-out: Glucose consumption (fold change) Mean. Put shortly:
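3T3-L1 cells were differentiated with rosiglitazone, dexamethasone, IBMX and insulin, then used on day 11 or 12. Medium glucose was measured colorimetrically, and consumption was given as mean fold change versus DMSO ± SD.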

For test [2], the target named is T1, His6 tagged human recombinant FABP4 (Homo sapiens, UniProt P15090).
T1 construct: purchased Cayman Chemicals 10009549
T1 sequence (P15090 whole entry): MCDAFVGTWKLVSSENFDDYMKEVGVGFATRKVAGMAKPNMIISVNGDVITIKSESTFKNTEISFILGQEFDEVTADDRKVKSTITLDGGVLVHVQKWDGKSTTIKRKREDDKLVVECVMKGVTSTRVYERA
The experiment in a line: FABP4 Tb TR-FRET assay: displacement of BODIPY FL C12 fatty acid from His6-FABP4. Particulars: triplicates, inhibition of BODIPY FL C12 binding. The source says: Activity of compounds with FABP4 was profiled using a Terbium (Tb) based time resolved fluorescence energy transfer (TR-FRET) assay. The assay measures the compound mediated displacement of the fluorescent fatty acid BODIPY FL C12 (Thermo Fisher; catalog number D3822) from His6 tagged human recombinant FABP4 (His6-FABP4; Cayman Chemicals, catalog number 10009549) via recording the energy transfer from TB donor molecule on anti-His6-tag antibody to acceptor BODIPY moiety. Briefly, compounds were prepared at a concentration of 0.362 mM and 0.0362 mM, and BODIPY FL C12 was prepared at 4.2 μM, in DMSO. 1.2 μL of each compound or DMSO (vehicle control) and 1.2 μL of BODIPY FL C12 were added into the wells of a 384-well black polypropylene plate. His6-FABP4 and Tb anti-His6 antibody were prepared in the assay buffer (25 mM Tris/HCl, pH 7.4, 0.4 mg/ml γ-globulins, 0.010% NP-40, 1 mM DTT) at a concentration of 83 nM and 49.6 nM, respectively. The protein and antibody solutions were then mixed at a ratio of 34:7 (v/v) and incubated on ice for 30 minutes. The assay was initiated by adding 41 μL of the resulting protein/antibody solution into the wells containing the compounds and BODIPY FL C12. The plate was centrifuged and incubated at room temperature for 10 min. The TR-FRET signals were recorded using an EnVision Multilabel plate reader (PerkinElmer; TB excitation 320 nm, BODIPY FL C12 emission 520 nm; TB emission 615 nm). Relative fluorescence ratio (520 nm*10,000/615 nm) were used to calculate the compound mediated inhibition of BODIPY C12 FL fatty acid binding to FABP4. […] Glucose consumption and FABP4 inhibition is shown below in Table 3 below.

Regarding `CCCCCCC1CCCc2c(n(Cc3ccc4ocnc4c3)c3c(C(=O)O)cccc23)C1` (stereo not drawn) [5-[(1,3-benzoxazol-5-yl)methyl]-7-hexyl-5H,6H,7H,8H,9H,10H-cyclohepta[b]indole-4-carboxylic acid], the fold induction at 10 µM in test [1] was found to be 0.87. Besides, in test [2] (1 μM compound), the inhibition (usually the drop in the measured response relative to a control, in per cent) at 1 µM turned out to be 88%.

As for `CCCCCCC1CCCc2c(n(Cc3ccccc3C#N)c3c(C(=O)O)cccc23)C1` (stereo not drawn) [5-[(2-cyanophenyl)methyl]-7-hexyl-5H,6H,7H,8H,9H,10H-cyclohepta[b]indole-4-carboxylic acid], in test [1], the fold induction at 10 µM turned out to be 0.91. Moreover, in test [2] (1 μM compound), the inhibition at 1 µM worked out at 88.5%. As for `CCCCCCC1CCCc2c(n(Cc3cc(C#N)cs3)c3c(C(=O)O)cccc23)C1` (stereo not drawn) [5-[(4-cyanothiophen-2-yl)methyl]-7-hexyl-5H,6H,7H,8H,9H,10H-cyclohepta[b]indole-4-carboxylic acid], the inhibition at 1 µM in test [2] (1 μM compound) was 83.3%. In addition, the inhibition at 10 µM in test [2] (10 μM compound) was 89.4%. In the case of `CCCCCCC1CCCc2c(n(Cc3cccc(OC)c3)c3c(C(=O)O)cccc23)C1` (stereo not drawn) [7-hexyl-5-[(3-methoxyphenyl)methyl]-5H,6H,7H,8H,9H,10H-cyclohepta[b]indole-4-carboxylic acid], in test [1], the fold induction at 10 µM was determined as 1.13. Moreover, the inhibition at 1 µM in test [2] (1 μM compound) came out at 93.2%. Take `CCCCCCC1CCCc2c(n(Cc3cccc(C(F)(F)F)n3)c3c(C(=O)O)cccc23)C1` (stereo not drawn) [7-hexyl-5-{[6-(trifluoromethyl)pyridin-2-yl]methyl}-5H,6H,7H,8H,9H,10H-cyclohepta[b]indole-4-carboxylic acid]: in test [2] (1 μM compound), the inhibition at 1 µM was found to be 79.7%. Turning to `CCCCCCC1CCc2c(n(Cc3cccc(C(=O)O)c3)c3c(C(=O)O)cccc23)C1` (stereo not drawn) [9-[(3-carboxyphenyl)methyl]-2-hexyl-2,3,4,9-tetrahydro-1H-carbazole-8-carboxylic acid], the fold induction at 10 µM in test [1] stood at 1.01. Also, the “FABP4 inhibition (%) at 1 μM Mean” value in test [2] (1 μM compound) was determined as 42.40%. Moreover, the “FABP4 inhibition (%) at 10 μM Mean” value in test [2] (10 μM compound) worked out at 80.24%. Consider `N#Cc1cccc(Cn2c3c(c4cccc(C(=O)O)c42)CCC(CCc2ccccc2)C3)c1` (stereo not drawn) [9-[(3-cyanophenyl)methyl]-2-(2-phenylethyl)-2,3,4,9-tetrahydro-1H-carbazole-8-carboxylic acid], for which, in test [2] (1 μM compound), the inhibition at 1 µM was 92.7%. Turning to `CCCC1CCc2c(n(Cc3cccc(C#N)c3)c3c(C(=O)O)cccc23)C1` (stereo not drawn) [9-[(3-cyanophenyl)methyl]-2-propyl-2,3,4,9-tetrahydro-1H-carbazole-8-carboxylic acid], the fold induction at 10 µM in test [1] stood at 1.21. The same measure, in the same setting: as for `CCC1CCc2c(c3cccc(C(=O)O)c3n2Cc2cccc(C#N)c2)C1` (stereo not drawn) [9-[(3-cyanophenyl)methyl]-3-ethyl-2,3,4,9-tetrahydro-1H-carbazole-8-carboxylic acid], the figure is 1.08; as for `CCCCCC1CCc2c(c3cccc(C(=O)O)c3n2Cc2cccc(C#N)c2)C1` (stereo not drawn) [9-[(3-cyanophenyl)methyl]-3-pentyl-2,3,4,9-tetrahydro-1H-carbazole-8-carboxylic acid], 1.17. Turning to `CCCC1CCc2c(c3cccc(C(=O)O)c3n2Cc2cccc(C#N)c2)C1` (stereo not drawn) [9-[(3-cyanophenyl)methyl]-3-propyl-2,3,4,9-tetrahydro-1H-carbazole-8-carboxylic acid], the fold induction at 10 µM in test [1] was found to be 1.2. On the same count and under the same terms, as for `N#Cc1cccc(Cn2c3c(c4cccc(C(=O)O)c42)C(CCc2ccccc2)CCC3)c1` (stereo not drawn) [9-[(3-cyanophenyl)methyl]-4-(2-phenylethyl)-2,3,4,9-tetrahydro-1H-carbazole-8-carboxylic acid], the figure is 1.1. Take `CCCCCC1CCCc2c1c1cccc(C(=O)O)c1n2Cc1cccc(C#N)c1` (stereo not drawn) [9-[(3-cyanophenyl)methyl]-4-pentyl-2,3,4,9-tetrahydro-1H-carbazole-8-carboxylic acid]: in test [1], the fold induction at 10 µM came to 1.13. On the same count and under the same terms, as for `CCCCC1CCCCc2c1c1cccc(C(=O)O)c1n2Cc1cccc(C(N)=O)c1` (stereo not drawn) [10-butyl-5-[(3-carbamoylphenyl)methyl]-5H,6H,7H,8H,9H,10H-cyclohepta[b]indole-4-carboxylic acid], the figure is 1.14; as for `CCCCC1CCCCc2c1c1cccc(C(=O)O)c1n2Cc1cccc(C#N)c1` (stereo not drawn) [10-butyl-5-[(3-cyanophenyl)methyl]-5H,6H,7H,8H,9H,10H-cyclohepta[b]indole-4-carboxylic acid], 1.24.
